According to paper PMC9866728, “Dosing Methods to Enable Cell-Based In Vitro Testing of Complex Substances: A Case Study with a PAH Mixture” (Toxics, 2022):
“And” between values parts separate entries of the source, which are not always exact repeats. Equal values may be shown once. Read-outs that look alike come from different tables or passages of the source.

Assays:
[1] = Loading kinetics of silicone micro-O-rings from methanol PAH solution (GC-MS/MS); assay type: physicochemical; conditions: for K Value: loading rate constant, one-phase association (h^-1); for K Value / Plateau Value / Y0: 10 µg/mL PAH mix in methanol; for Plateau Value: one-phase association fit of nominal Csilicone (µg/mL per Eq 1); for Y0: one-phase association fit of nominal Csilicone, 0-24 h; for Half-time Value / Span Value / Tau Value: one-phase association fit, micro-O-ring absorption
[2] = Recovery over time from exposure to cell culture media without cells (GC-MS/MS); assay type: physicochemical
[3] = bovine, 24 h
[4] = O-ring loading rate constant, larger O-rings; ref Smith et al. 2010 [24]; cited from earlier work
[5] = Table S1; ref PubChem; cited from earlier work
[6] = Smith et al. O-Rings; ref Smith et al. 2010 [24]; cited from earlier work
[7] = Protein binding: media-dissolved fraction (FMD) and unbound fraction (FUB) in cell culture media without cells (ultracentrifugation, GC-MS/MS)
[8] = MAF (400 ng/mL each PAH), one phase decay fit of nominal recovery
[9] = MAF (400 ng/mL each PAH), one phase decay fit of nominal recovery (text: ng/mL)
[10] = O-Rings (loaded in 10 µg/mL PAH solution), one phase association fit of nominal recovery
[11] = O-Rings, one phase association fit
[12] = O-Rings, one phase association fit (desorption into media)
[13] = Solvent Extract (DMSO, 15 ng/mL each PAH), one phase decay fit of nominal recovery
[14] = Solvent Extract (DMSO, 15 ng/mL each PAH), one phase decay fit of nominal recovery (text: ng/mL)
[15] = Solvent Extract, one phase decay fit

For `c1ccc2c(c1)Cc1ccccc1-2` [Fluorene], which “K Value” [1] is on record?
The value was 26.7516.

What about the “Plateau Value” [1] of the same compound?
Its value is 0.7821.

And the Y0 [1]?
Its Y0 is 0.

And the “Half-time Value” [1]?
Its value is 0.02591.

And the “Span Value” [1]?
The value was 0.7821.

And the “Tau Value” [1]?
Its value is 0.03738.

And the Y0 [2, 8]?
The Y0 was 397.4.

What about the Plateau [2, 9] of the same compound?
The Plateau was 50.15.

What about the K ([2]; MAF, one phase decay fit) of the same compound?
Its K is 0.7944.

And the Span ([2]; MAF, one phase decay fit)?
The Span was 347.3.

And the Tau ([2]; MAF, one phase decay fit)?
The Tau was 1.259.

What about the Plateau [2, 10] of the same compound?
The Plateau was 2.925.

What about the Y0 [2, 10] of the same compound?
Its Y0 is -0.4812.

And the Half-time [2, 11]?
The Half-time was 0.4551.

What about the Span [2, 11] of the same compound?
The Span was 3.406.

What about the Tau [2, 11] of the same compound?
Its Tau is 0.6566.

What about the K [2, 12] of the same compound?
Its K is 1.523.

What about the Y0 [2, 13] of the same compound?
Its Y0 is 14.61.

And the Plateau [2, 14]?
The Plateau was 3.728.

What about the K [2, 15] of the same compound?
The K was 0.435.

What about the Span [2, 15] of the same compound?
Its Span is 10.88.

What about the Tau [2, 15] of the same compound?
The Tau was 2.299.

What about the “ISTD Resp. Ratio (Raw Data for FMD)” value ([3]; 0.375 µg/mL) of the same compound?
The value was 0.7014.

What about the “ISTD Resp. Ratio (Raw Data for FMD)” value ([3]; 10 µg/mL) of the same compound?
Its value is 0.2015.

And the “Smith et al. 2010 K Value” [4]?
The value was 1.89.

And the “LogKow (PubChem)” value [5]?
The value was 4.18.

For `c1ccc2c(c1)-c1cccc3cccc-2c13` [Fluoranthene], which “K Value” [1] is on record?
Its value is 23.4013.

And the “Plateau Value” [1]?
The value was 0.3327.

And the Y0 [1]?
Its Y0 is 0.

And the “Half-time Value” [1]?
Its value is 0.02962.

And the “Span Value” [1]?
Its value is 0.3327.

What about the “Tau Value” [1] of the same compound?
Its value is 0.04273.

What about the Y0 [2, 8] of the same compound?
The Y0 was 391.9.

And the Plateau [2, 9]?
Its Plateau is 86.09.

And the K ([2]; MAF, one phase decay fit)?
Its K is 0.2998.

And the Span ([2]; MAF, one phase decay fit)?
Its Span is 305.9.

What about the Tau ([2]; MAF, one phase decay fit) of the same compound?
The Tau was 3.336.

And the Plateau [2, 10]?
The Plateau was 0.9705.

And the Y0 [2, 10]?
Its Y0 is -0.1202.

And the Half-time [2, 11]?
The Half-time was 0.594.

What about the Span [2, 11] of the same compound?
The Span was 1.091.

What about the Tau [2, 11] of the same compound?
Its Tau is 0.857.

And the K [2, 12]?
Its K is 1.167.

And the Y0 [2, 13]?
Its Y0 is 14.59.

What about the Plateau [2, 14] of the same compound?
Its Plateau is 2.835.

What about the K [2, 15] of the same compound?
The K was 0.372.

What about the Span [2, 15] of the same compound?
The Span was 11.75.

And the Tau [2, 15]?
Its Tau is 2.688.

And the “Smith et al. 2010 K Value” [4]?
The value was 1.41.

And the K [6]?
The K was 0.93.

What about the “LogKow (PubChem)” value [5] of the same compound?
The value was 5.16.

What does the source list for `c1ccc2c(c1)ccc1ccccc12` [Phenanthrene]?
K Value [1]: 29.7306; Plateau Value [1]: 0.2434; Y0 [1]: 0; Half-time Value [1]: 0.02331; Span Value [1]: 0.2434; Tau Value [1]: 0.03364; Y0 [2, 8]: 398.5; Plateau [2, 9]: 48.89; K ([2]; MAF, one phase decay fit): 0.9181; Span ([2]; MAF, one phase decay fit): 349.6; Tau ([2]; MAF, one phase decay fit): 1.089; Plateau [2, 10]: 0.3728; Y0 [2, 10]: -0.1954; Half-time [2, 11]: 0.1645; Span [2, 11]: 0.5682; Tau [2, 11]: 0.2373; K [2, 12]: 4.214; Y0 [2, 13]: 14.6; Plateau [2, 14]: 2.716; K [2, 15]: 0.502; Span [2, 15]: 11.89; Tau [2, 15]: 1.992; Smith et al. 2010 K Value [4]: 1.66; K [6]: 1.32; LogKow (PubChem) [5]: 4.46; ISTD Resp. Ratio, stock ([7]; 0.375 ug/mL DMSO extract, 1 hr exposure block, stock reference samples STOCK_R1-R3, raw GC-MS/MS response ratio to ISTD): 7.517 and 6.997 and 7.303; ISTD Resp. Ratio (Raw Data for FMD) ([7]; 0.375 ug/mL DMSO extract, 1 hr exposure, media-dissolved fraction, replicates DMSO_FMD_R1-R4, raw GC-MS/MS response ratio to ISTD): 0.8475 and 0.7152 and 0.8128 and 0.7589; ISTD Resp. Ratio (Raw Data for FUB) ([7]; 0.375 ug/mL DMSO extract, 1 hr exposure, unbound fraction, replicates DMSO_FUB_R1-R4, raw GC-MS/MS response ratio to ISTD): 0.02919 and 0.03368 and 0.0397 and 0.002786; ISTD Resp. Ratio, stock ([7]; 0.375 ug/mL DMSO extract, 24 hr exposure block, stock samples STOCK_R1-R3, GC-MS/MS area ratio to ISTD): 9.093 and 9.139 and 8.158; ISTD Resp. Ratio (Raw Data for FMD) ([7]; 0.375 ug/mL DMSO extract, 24 hr exposure, media-dissolved fraction samples, replicates DMSO_FMD_R2-R4, GC-MS/MS area ratio to ISTD): 0.2846 and 0.2622 and 0.2363; ISTD Resp. Ratio (Raw Data for FMD) ([7]; 0.375 ug/mL DMSO extract, 24 hr exposure, media-dissolved fraction, replicate DMSO_FMD_R1, raw GC-MS/MS response ratio to ISTD): 0.2681; ISTD Resp. Ratio (Raw Data for FUB) ([7]; 0.375 ug/mL DMSO extract, 24 hr exposure, unbound fraction samples, replicates DMSO_FUB_R1-R4, GC-MS/MS area ratio to ISTD): 0.01396 and 0.01643 and 0.01239 and 0.00394; ISTD Resp. Ratio (raw data for FMD) ([7]; 10 ug/mL MAF (MAF_1H_FMD), 1 hour exposure, replicates R1-R3): 58.1761 and 43.9105 and 63.6043; ISTD Resp. Ratio (raw data for FUB) ([7]; 10 ug/mL MAF (MAF_1H_FUB), 1 hour exposure, replicates R1-R3): 0.06932 and 0.09392 and 0.08269; ISTD Resp. Ratio, Raw Data for FMD (media-dissolved fraction) ([7]; 10 ug/mL MAF, 24 hour exposure, samples MAF_24H_FMD_R1-R3 (replicates), raw GC-MS/MS analyte/ISTD response ratio): 34.5977 and 34.7241 and 34.153; ISTD Resp. Ratio, Raw Data for FUB (unbound fraction) ([7]; 10 ug/mL MAF, 24 hour exposure, samples MAF_24H_FUB_R1-R3 (replicates), raw GC-MS/MS analyte/ISTD response ratio): 0.04313 and 0.02976 and 0.1769; ISTD Resp. Ratio (Raw Data for FMD) ([7]; 10 ug/mL micro-O-Rings, 1 hour exposure, media-dissolved fraction samples, replicates ORINGS_1H_FMD_R1-R3, GC-MS/MS area ratio to ISTD): 0.01581 and 0.07741 and 0.0739; ISTD Resp. Ratio (Raw Data for FUB) ([7]; 10 ug/mL micro-O-Rings, 1 hour exposure, unbound fraction samples, replicates ORINGS_1H_FUB_R1-R3, GC-MS/MS area ratio to ISTD): 0.004514 and 0.0003336 and 0.01406; ISTD Resp. Ratio (Raw Data for FMD) ([7]; 10 ug/mL micro-O-Rings, 24 hour exposure, media-dissolved fraction samples, replicate ORINGS_24H_FMD_R1, GC-MS/MS area ratio to ISTD): 0.01817; ISTD Resp. Ratio (raw data for FMD) ([7]; O-rings (ORINGS_24H_FMD), 24 hour exposure, media without cells, GC-MS/MS analyte/ISTD response ratio, replicates R2-R3): 0.001128 and 0.05584; ISTD Resp. Ratio (raw data for FUB) ([7]; O-rings (ORINGS_24H_FUB), 24 hour exposure, media without cells, GC-MS/MS analyte/ISTD response ratio, replicates R1-R3): 0.001509 and 0.006155 and 0.006123; ISTD Resp. Ratio, stock ([7]; STOCK_10_R1-R3 (replicates) of the block 10 ug/mL MAF, 24 hr exposure, raw GC-MS/MS analyte/ISTD response ratio): 241.043 and 253.185 and 249.851; ISTD Resp. Ratio (STOCK_10) ([7]; STOCK_10 reference samples of the 10 ug/mL MAF section, replicates R1-R3): 251.693 and 253.185 and 259.309; ISTD Resp. Ratio (STOCK_10) ([7]; STOCK_10 reference samples of the O-rings section, replicates R1-R3): 105.268 and 100.389 and 100.167
